# Patent publication US7226939B2, “Thienopyridine analogues with antifungal activity and process thereof” (priority 2002, dated 2007)
# System: C. albicans
# Assay: In vitro antifungal susceptibility testing (MIC), soyabean casein digest broth
# Format: cell-based
# Conditions: Candida albicans, reference standard, end points after 48 hours, read-out: minimum inhibitory concentration
# Method: In vitro evaluation of antifungal activity can be performed by determining the minimum inhibitory concentration.
# Anti-fungal susceptibility testing of these anti-fungal compounds was done by conventional method using soyabean casein digest broth. Known anti-fungal agents like Fluconazole and amphotericin-B were used as positive Control. End points were determined after 48 hours visually and by using Spectrophotometer wherever necessary. Different dilutions were tried and the set of experiments where repeated to confirm the end points. Standard cultures of Candida, Aspergillus and Fusarium were used for screening of these drugs.
# Substituents and In-Vitro Anti-Fungal Activity (C. albicans) of the Compounds Expressed as MIC* (μg/ml). Reference Standard (RS) Fluconazole.
smiles,measurement,value
OC(Cn1cncn1)(Cn1cncn1)c1ccc(F)cc1F [Fluconazole],MIC,< 3.12 µg/mL
